IC50 data for 20 molecules are collected here from US20260226029A1, “1-(1-Oxo-1,2-Dihydrophthalazin-6-yl)Cycloalkyl-1-Carboxamide Derivatives as MTA-Cooperative Inhibitors of PRMT5” (BeOne Medicines I GmbH, priority 2023, published 2026).

The test system of one experiment is HCT116-MTAP-KO. Description: Compounds cell killing in HCT116 isogenic pair (CellTiter-Glo, 6 days), MTAP-KO cells. It is filed as cell-based. To be noted: Homo sapiens, HCT-116, 144 h, Cell Titer-Glo, 0-10 μM. From the text: (§1) HCT116 cell line (ATCC, CCL-247) was isolated from the colon of an adult with colon cancer. It has a mutation in codon 13 of the ras proto-oncogene and can be used as a positive control for PCR assays of mutation in this codon. HCT116-MTAP-KO was knocked-out-MTAP-gene based HCT116, and a single clone was passed for this assay. HCT116-mock-RNA-KO was knocked-out-mock-gene based HCT116 with MTAP wildtype genotype. The base medium for HCT116 isogenic pair is RPMI 1640, HEPES (Gibco, 22400105). To make the complete growth medium, add the following components to the base medium: fetal bovine serum to a final concentration of 10% (Gibco, 10099-141C). The cell line was grown in a humidified 5% CO2 atmosphere at 37° C. and regularly tested for the presence of mycoplasma with MycoAlert™ PLUS Mycoplasma Detection Kit (Lonza, LT07-710).
(§2) • Seed HCT116-mock-RNA-KO (4E2/well) or HCT116-MTAP-KO (4E2/well) cells into a 96-well plate (Greiner: 655090), 100 µL/well. • Incubate at 37° C., 5% CO2, overnight. • Add 50 μL fresh growth-medium containing serial dilution of compounds for a final compound concentration of 0-10 μM to each well. • Incubate at 37° C., 5% CO2, 6 days. • The cell viability detected by Cell Titer-Glo (Promega, G7573). Add 70 μL of CellTiter-Glo® reagent in each well. • Incubate at room temperature for 10 minutes to stabilize luminescent signal. • Analyze with Microplate Reader (TECAN, SPARK) and fit IC50 using Prism® 9.

Another experiment has as its system HCT116-mock-RNA-KO. Put plainly: Compounds cell killing in HCT116 isogenic pair (CellTiter-Glo, 6 days), mock-KO (MTAP wildtype) cells. It is filed as cell-based. The note with it: Homo sapiens, HCT-116, 144 h, Cell Titer-Glo, 0-10 μM.
Text: as §1, §2

As for `N#Cc1cccc(Cl)c1-c1ccc(CN(C(=O)C2(c3ccc4c(=O)[nH]nc(CN)c4c3)CC2)C2CCCc3cccnc32)nc1` (stereo not shown) [Example 13, 1-(4-(aminomethyl)-1-oxo-1,2-dihydrophthalazin-6-yl)-N-((5-(2-chloro-6-cyanophenyl)pyridin-2-yl)methyl)-N-(5,6,7,8-tetrahydroquinolin-8-yl)cyclopropane-1-carboxamide], the IC50 is 62 nM in the experiment with HCT116-MTAP-KO and 3950 nM in the experiment on HCT116-mock-RNA-KO.
The like results for `CC(C)(C)c1ccc(CN(C(=O)C2(c3ccc4c(=O)[nH]nc(CN)c4c3)CC2)C2CCCc3cccnc32)nc1` (stereo not shown) [Example 14, 1-(4-(aminomethyl)-1-oxo-1,2-dihydrophthalazin-6-yl)-N-((5-(tert-butyl)pyridin-2-yl)methyl)-N-(5,6,7,8-tetrahydroquinolin-8-yl)cyclopropane-1-carboxamide] were, in that order, 378 nM and above 10000 nM.
As for `NCc1n[nH]c(=O)c2ccc(C3(C(=O)N(Cc4ncc(Br)c5ccccc45)C4CCCc5cccnc54)CC3)cc12` (stereo not shown) [Example 15, 1-(4-(aminomethyl)-1-oxo-1,2-dihydrophthalazin-6-yl)-N-((4-bromoisoquinolin-1-yl)methyl)-N-(5,6,7,8-tetrahydroquinolin-8-yl)cyclopropane-1-carboxamide], the IC50 in the experiment with HCT116-MTAP-KO stood at 942 nM; in the experiment on HCT116-mock-RNA-KO, 5080 nM.
The like results for `Cn1nccc1-c1ccc(CN(C(=O)C2(c3ccc4c(=O)[nH]nc(CN)c4c3)CC2)C2CCCc3cccnc32)nc1` (stereo not shown) [Example 16, 1-(4-(aminomethyl)-1-oxo-1,2-dihydrophthalazin-6-yl)-N-((5-(1-methyl-1H-pyrazol-5-yl)pyridin-2-yl)methyl)-N-(5,6,7,8-tetrahydroquinolin-8-yl)cyclopropane-1-carboxamide] were, in that order, 699 nM and above 10000 nM.
In the same order, the values of `COc1ccnc2c1CCCC2N(Cc1ccc(C(F)(F)F)cn1)C(=O)C1(c2ccc3c(=O)[nH]nc(CN)c3c2)CC1` (stereo not shown) [Example 17, 1-(4-(aminomethyl)-1-oxo-1,2-dihydrophthalazin-6-yl)-N-(4-methoxy-5,6,7,8-tetrahydroquinolin-8-yl)-N-((5-(trifluoromethyl)pyridin-2-yl)methyl)cyclopropane-1-carboxamide] are 253 nM and above 10000 nM.
For `NCc1n[nH]c(=O)c2ccc(C3(C(=O)N(Cc4ccc(-c5c(F)cccc5F)cn4)C4CCCc5cccnc54)CC3)cc12` (stereo not shown) [Example 18, 1-(4-(aminomethyl)-1-oxo-1,2-dihydrophthalazin-6-yl)-N-((5-(2,6-difluorophenyl)pyridin-2-yl)methyl)-N-(5,6,7,8-tetrahydroquinolin-8-yl)cyclopropane-1-carboxamide], the half-maximal inhibitory concentration (IC50) with HCT116-MTAP-KO stood at 35 nM; in the experiment on HCT116-mock-RNA-KO it was 2220 nM.
In the same order, the values of `NCc1n[nH]c(=O)c2ccc(C3(C(=O)N(Cc4ccc(-c5c(F)cccc5F)cn4)[C@@H]4CCCc5cccnc54)CC3)cc12` [Example 19A, (R)-1-(4-(aminomethyl)-1-oxo-1,2-dihydrophthalazin-6-yl)-N-((5-(2,6-difluorophenyl)pyridin-2-yl)methyl)-N-(5,6,7,8-tetrahydroquinolin-8-yl)cyclopropane-1-carboxamide] are 17 nM and 2230 nM.
Take `NCc1n[nH]c(=O)c2ccc(C3(C(=O)N(Cc4ccc(-c5c(F)cccc5F)cn4)[C@H]4CCCc5cccnc54)CC3)cc12` [Example 19B, (S)-1-(4-(aminomethyl)-1-oxo-1,2-dihydrophthalazin-6-yl)-N-((5-(2,6-difluorophenyl)pyridin-2-yl)methyl)-N-(5,6,7,8-tetrahydroquinolin-8-yl)cyclopropane-1-carboxamide]: the concentration for half-maximal inhibition (IC50) was 848 nM in the experiment with HCT116-MTAP-KO and above 10000 nM with HCT116-mock-RNA-KO.
Regarding `NCc1n[nH]c(=O)c2ccc(C3(C(=O)N(Cc4ccc(Oc5ccccc5)cn4)C4CCCc5cccnc54)CC3)cc12` (stereo not shown) [Example 20, 1-(4-(aminomethyl)-1-oxo-1,2-dihydrophthalazin-6-yl)-N-((5-phenoxypyridin-2-yl)methyl)-N-(5,6,7,8-tetrahydroquinolin-8-yl)cyclopropane-1-carboxamide], the IC50 was 215 nM in the experiment with HCT116-MTAP-KO and above 1000 nM in the experiment with HCT116-mock-RNA-KO.
In the same order, the values of `NCc1n[nH]c(=O)c2ccc(C3(C(=O)N(Cc4ccc(-c5c(F)cccc5F)cn4)C4CCCc5cccc(F)c54)CC3)cc12` (stereo not shown) [Example 21, 1-(4-(aminomethyl)-1-oxo-1,2-dihydrophthalazin-6-yl)-N-((5-(2,6-difluorophenyl)pyridin-2-yl)methyl)-N-(8-fluoro-1,2,3,4-tetrahydronaphthalen-1-yl)cyclopropane-1-carboxamide] are 102 nM and 4010 nM.
In the same order, the values of `NCc1n[nH]c(=O)c2ccc(C3(C(=O)N(Cc4ccc(Br)cc4F)C4CCCc5cccnc54)CC3)cc12` (stereo not shown) [Example 22, 1-(4-(aminomethyl)-1-oxo-1,2-dihydrophthalazin-6-yl)-N-(4-bromo-2-fluorobenzyl)-N-(5,6,7,8-tetrahydroquinolin-8-yl)cyclopropane-1-carboxamide] are 130 nM and 7370 nM.
In the same order, the values of `Cc1n[nH]c(C)c1-c1ccc(CN(C(=O)C2(c3ccc4c(=O)[nH]nc(CN)c4c3)CC2)C2CCCc3cccnc32)nc1` (stereo not shown) [Example 23, 1-(4-(aminomethyl)-1-oxo-1,2-dihydrophthalazin-6-yl)-N-((5-(3,5-dimethyl-1H-pyrazol-4-yl)pyridin-2-yl)methyl)-N-(5,6,7,8-tetrahydroquinolin-8-yl)cyclopropane-1-carboxamide] are 3990 nM and above 10000 nM.
Turning to `NCc1n[nH]c(=O)c2ccc(C3(C(=O)N(Cc4ccc(-c5c(F)cccc5F)cn4)C4CCC4)CC3)cc12` [Example 25, 1-(4-(aminomethyl)-1-oxo-1,2-dihydrophthalazin-6-yl)-N-cyclobutyl-N-((5-(2,6-difluorophenyl)pyridin-2-yl)methyl)cyclopropane-1-carboxamide], the half-maximal inhibitory concentration (IC50) is 3690 nM in the experiment on HCT116-MTAP-KO and above 10000 nM in the experiment with HCT116-mock-RNA-KO.
The like results for `NCc1n[nH]c(=O)c2ccc(C3(C(=O)N(Cc4ccc(-c5c(F)cccc5Cl)cn4)C4CCCc5cccnc54)CC3)cc12` (stereo not shown) [Example 26, 1-(4-(aminomethyl)-1-oxo-1,2-dihydrophthalazin-6-yl)-N-((5-(2-chloro-6-fluorophenyl)pyridin-2-yl)methyl)-N-(5,6,7,8-tetrahydroquinolin-8-yl)cyclopropane-1-carboxamide] were, in that order, 77 nM and 2780 nM.
The like results for `NCc1n[nH]c(=O)c2ccc(C3(C(=O)N(Cc4ccc5c(Br)cccc5n4)C4CCCc5cccnc54)CC3)cc12` (stereo not shown) [Example 27, 1-(4-(aminomethyl)-1-oxo-1,2-dihydrophthalazin-6-yl)-N-((5-bromoquinolin-2-yl)methyl)-N-(5,6,7,8-tetrahydroquinolin-8-yl)cyclopropane-1-carboxamide] were, in that order, 415 nM and 7290 nM.
For `N#Cc1cccc(F)c1-c1ccc(CN(C(=O)C2(c3ccc4c(=O)[nH]nc(CN)c4c3)CC2)C2CCCc3cccnc32)nc1` (stereo not shown) [Example 28, 1-(4-(aminomethyl)-1-oxo-1,2-dihydrophthalazin-6-yl)-N-((5-(2-cyano-6-fluorophenyl)pyridin-2-yl)methyl)-N-(5,6,7,8-tetrahydroquinolin-8-yl)cyclopropane-1-carboxamide], the concentration for half-maximal inhibition (IC50) worked out at 102 nM in the experiment on HCT116-MTAP-KO and 3210 nM in the experiment with HCT116-mock-RNA-KO.
The like results for `CC(c1ncccn1)N(Cc1ccc(C(F)(F)F)cn1)C(=O)C1(c2ccc3c(=O)[nH]nc(CN)c3c2)CC1` (stereo not shown) [Example 29, 1-(4-(aminomethyl)-1-oxo-1,2-dihydrophthalazin-6-yl)-N-(1-(pyrimidin-2-yl)ethyl)-N-((5-(trifluoromethyl)pyridin-2-yl)methyl)cyclopropane-1-carboxamide] were, in that order, 1440 nM and above 10000 nM.
In the same order, the values of `COCC(COC)N(Cc1ccc(-c2c(F)cccc2F)cn1)C(=O)C1(c2ccc3c(=O)[nH]nc(CN)c3c2)CC1` [Example 30, 1-(4-(aminomethyl)-1-oxo-1,2-dihydrophthalazin-6-yl)-N-((5-(2,6-difluorophenyl)pyridin-2-yl)methyl)-N-(1,3-dimethoxypropan-2-yl)cyclopropane-1-carboxamide] are 254 nM and above 10000 nM.
For `NCc1n[nH]c(=O)c2ccc(C3(C(=O)N(Cc4ccc(S(F)(F)(F)(F)F)cc4)[C@@H]4CCCc5cccnc54)CC3)cc12` [Example 31, (R)-1-(4-(aminomethyl)-1-oxo-1,2-dihydrophthalazin-6-yl)-N-(4-(pentafluoro-λ^6-sulfanyl)benzyl)-N-(5,6,7,8-tetrahydroquinolin-8-yl)cyclopropane-1-carboxamide], the half-inhibitory concentration (IC50) with HCT116-MTAP-KO was determined as 18 nM; in the experiment on HCT116-mock-RNA-KO it was 3150 nM.
In the same order, the values of `NCc1n[nH]c(=O)c2ccc(C3(C(=O)N(Cc4ccc(C(F)(F)F)cn4)C4CCCc5c(C6CC6)ccnc54)CC3)cc12` (stereo not shown) [Example 32, 1-(4-(aminomethyl)-1-oxo-1,2-dihydrophthalazin-6-yl)-N-(4-cyclopropyl-5,6,7,8-tetrahydroquinolin-8-yl)-N-((5-(trifluoromethyl)pyridin-2-yl)methyl)cyclopropane-1-carboxamide] are 140 nM and 7330 nM.
